# Tested on: Aspergillus niger
# Assay: Antifungal activity against Aspergillus niger MTCC 282
# Format: functional
# Conditions: not given
row,MIC,SMILES
1,100 µg/mL,Cc1ccc2nc(-c3ccccc3N3C(=O)CSC3c3cccc([N+](=O)[O-])c3)[nH]c2c1 (centres undefined)
2,1000 µg/mL,Cc1ccc2nc(-c3ccccc3N3C(=O)CSC3c3ccc([N+](=O)[O-])cc3)[nH]c2c1 (centres undefined)

# Second part, the compound before the results:
row,SMILES,MIC
1,Cc1ccc2nc(-c3ccccc3N3C(=O)CSC3c3cccc(O)c3)[nH]c2c1 (centres undefined),1000 µg/mL
2,COc1ccc(C2SCC(=O)N2c2ccccc2-c2nc3ccc(C)cc3[nH]2)cc1OC (centres undefined),1000 µg/mL
3,COc1cc(C2SCC(=O)N2c2ccccc2-c2nc3ccc(C)cc3[nH]2)cc(OC)c1OC (centres undefined),1000 µg/mL
4,Cc1ccc2nc(-c3ccccc3N3C(=O)CSC3c3ccccc3[N+](=O)[O-])[nH]c2c1 (centres undefined),1000 µg/mL
5,Cc1ccc2nc(-c3ccccc3N3C(=O)CSC3c3ccc([N+](=O)[O-])cc3[N+](=O)[O-])[nH]c2c1 (centres undefined),1000 µg/mL

# Tested on: Staphylococcus aureus
# Assay: Antibacterial activity against Staphylococcus aureus MTCC 96 after 24 to 48 hr by serial broth dilution method
# Format: functional
# Conditions: not given
row,MIC,SMILES
1,100 µg/mL,Cc1ccc2nc(-c3ccccc3N3C(=O)CSC3c3cccc([N+](=O)[O-])c3)[nH]c2c1 (centres undefined)
2,250 µg/mL,Cc1ccc2nc(-c3ccccc3N3C(=O)CSC3c3ccc([N+](=O)[O-])cc3)[nH]c2c1 (centres undefined)

# Continued, compound first:
row,SMILES,MIC
1,Cc1ccc2nc(-c3ccccc3N3C(=O)CSC3c3cccc(O)c3)[nH]c2c1 (centres undefined),250 µg/mL
2,COc1ccc(C2SCC(=O)N2c2ccccc2-c2nc3ccc(C)cc3[nH]2)cc1OC (centres undefined),100 µg/mL
3,COc1cc(C2SCC(=O)N2c2ccccc2-c2nc3ccc(C)cc3[nH]2)cc(OC)c1OC (centres undefined),500 µg/mL
4,Cc1ccc2nc(-c3ccccc3N3C(=O)CSC3c3ccccc3[N+](=O)[O-])[nH]c2c1 (centres undefined),1000 µg/mL
5,Cc1ccc2nc(-c3ccccc3N3C(=O)CSC3c3ccc([N+](=O)[O-])cc3[N+](=O)[O-])[nH]c2c1 (centres undefined),62.5 µg/mL

# Tested on: Candida albicans
# Assay: Antifungal activity against Candida albicans MTCC 227
# Format: functional
# Conditions: not given
row,MIC,SMILES
1,100 µg/mL,Cc1ccc2nc(-c3ccccc3N3C(=O)CSC3c3cccc([N+](=O)[O-])c3)[nH]c2c1 (centres undefined)
2,500 µg/mL,Cc1ccc2nc(-c3ccccc3N3C(=O)CSC3c3ccc([N+](=O)[O-])cc3)[nH]c2c1 (centres undefined)

# The remaining lines, values behind:
row,SMILES,MIC
1,Cc1ccc2nc(-c3ccccc3N3C(=O)CSC3c3cccc(O)c3)[nH]c2c1 (centres undefined),500 µg/mL
2,COc1ccc(C2SCC(=O)N2c2ccccc2-c2nc3ccc(C)cc3[nH]2)cc1OC (centres undefined),500 µg/mL
3,COc1cc(C2SCC(=O)N2c2ccccc2-c2nc3ccc(C)cc3[nH]2)cc(OC)c1OC (centres undefined),500 µg/mL
4,Cc1ccc2nc(-c3ccccc3N3C(=O)CSC3c3ccccc3[N+](=O)[O-])[nH]c2c1 (centres undefined),1000 µg/mL
5,Cc1ccc2nc(-c3ccccc3N3C(=O)CSC3c3ccc([N+](=O)[O-])cc3[N+](=O)[O-])[nH]c2c1 (centres undefined),1000 µg/mL

# Tested on: Pseudomonas aeruginosa
# Assay: Antibacterial activity against Pseudomonas aeruginosa MTCC 1688 after 24 to 48 hr by serial broth dilution method
# Format: functional
# Conditions: not given
row,MIC,SMILES
1,250 µg/mL,Cc1ccc2nc(-c3ccccc3N3C(=O)CSC3c3cccc([N+](=O)[O-])c3)[nH]c2c1 (centres undefined)
2,250 µg/mL,Cc1ccc2nc(-c3ccccc3N3C(=O)CSC3c3ccc([N+](=O)[O-])cc3)[nH]c2c1 (centres undefined)

# The next lines start with the compound.
row,SMILES,MIC
1,Cc1ccc2nc(-c3ccccc3N3C(=O)CSC3c3cccc(O)c3)[nH]c2c1 (centres undefined),250 µg/mL
2,COc1ccc(C2SCC(=O)N2c2ccccc2-c2nc3ccc(C)cc3[nH]2)cc1OC (centres undefined),250 µg/mL
3,COc1cc(C2SCC(=O)N2c2ccccc2-c2nc3ccc(C)cc3[nH]2)cc(OC)c1OC (centres undefined),250 µg/mL
4,Cc1ccc2nc(-c3ccccc3N3C(=O)CSC3c3ccccc3[N+](=O)[O-])[nH]c2c1 (centres undefined),250 µg/mL
5,Cc1ccc2nc(-c3ccccc3N3C(=O)CSC3c3ccc([N+](=O)[O-])cc3[N+](=O)[O-])[nH]c2c1 (centres undefined),250 µg/mL

# Tested on: Escherichia coli
# Assay: Antibacterial activity against Escherichia coli MTCC 443 after 24 to 48 hr by serial broth dilution method
# Format: functional
# Conditions: not given
row,MIC,SMILES
1,25 µg/mL,Cc1ccc2nc(-c3ccccc3N3C(=O)CSC3c3cccc([N+](=O)[O-])c3)[nH]c2c1 (centres undefined)
2,500 µg/mL,Cc1ccc2nc(-c3ccccc3N3C(=O)CSC3c3ccc([N+](=O)[O-])cc3)[nH]c2c1 (centres undefined)

# The next lines start with the compound.
row,SMILES,MIC
1,Cc1ccc2nc(-c3ccccc3N3C(=O)CSC3c3cccc(O)c3)[nH]c2c1 (centres undefined),500 µg/mL
2,COc1ccc(C2SCC(=O)N2c2ccccc2-c2nc3ccc(C)cc3[nH]2)cc1OC (centres undefined),100 µg/mL
3,COc1cc(C2SCC(=O)N2c2ccccc2-c2nc3ccc(C)cc3[nH]2)cc(OC)c1OC (centres undefined),500 µg/mL
4,Cc1ccc2nc(-c3ccccc3N3C(=O)CSC3c3ccccc3[N+](=O)[O-])[nH]c2c1 (centres undefined),500 µg/mL
5,Cc1ccc2nc(-c3ccccc3N3C(=O)CSC3c3ccc([N+](=O)[O-])cc3[N+](=O)[O-])[nH]c2c1 (centres undefined),62.5 µg/mL

# Tested on: Streptococcus pyogenes
# Assay: Antibacterial activity against Streptococcus pyogenes MTCC 442 after 24 to 48 hr by serial broth dilution method
# Format: functional
# Conditions: read-out: MIC
row,MIC,SMILES
1,62.5 µg/mL,Cc1ccc2nc(-c3ccccc3N3C(=O)CSC3c3cccc([N+](=O)[O-])c3)[nH]c2c1 (centres undefined)
2,250 µg/mL,Cc1ccc2nc(-c3ccccc3N3C(=O)CSC3c3ccc([N+](=O)[O-])cc3)[nH]c2c1 (centres undefined)

# Further lines, the compound ahead of its results:
row,SMILES,MIC
1,Cc1ccc2nc(-c3ccccc3N3C(=O)CSC3c3cccc(O)c3)[nH]c2c1 (centres undefined),125 µg/mL
2,COc1ccc(C2SCC(=O)N2c2ccccc2-c2nc3ccc(C)cc3[nH]2)cc1OC (centres undefined),1000 µg/mL
3,COc1cc(C2SCC(=O)N2c2ccccc2-c2nc3ccc(C)cc3[nH]2)cc(OC)c1OC (centres undefined),250 µg/mL
4,Cc1ccc2nc(-c3ccccc3N3C(=O)CSC3c3ccccc3[N+](=O)[O-])[nH]c2c1 (centres undefined),250 µg/mL
5,Cc1ccc2nc(-c3ccccc3N3C(=O)CSC3c3ccc([N+](=O)[O-])cc3[N+](=O)[O-])[nH]c2c1 (centres undefined),1000 µg/mL

# Tested on: Aspergillus clavatus
# Assay: Antifungal activity against Aspergillus clavatus MTCC 1323
# Format: functional
# Conditions: not given
row,MIC,SMILES
1,1000 µg/mL,Cc1ccc2nc(-c3ccccc3N3C(=O)CSC3c3cccc([N+](=O)[O-])c3)[nH]c2c1 (centres undefined)
2,1000 µg/mL,Cc1ccc2nc(-c3ccccc3N3C(=O)CSC3c3ccc([N+](=O)[O-])cc3)[nH]c2c1 (centres undefined)

# Further lines, the compound ahead of its results:
row,SMILES,MIC
1,Cc1ccc2nc(-c3ccccc3N3C(=O)CSC3c3cccc(O)c3)[nH]c2c1 (centres undefined),100 µg/mL
2,COc1ccc(C2SCC(=O)N2c2ccccc2-c2nc3ccc(C)cc3[nH]2)cc1OC (centres undefined),1000 µg/mL
3,COc1cc(C2SCC(=O)N2c2ccccc2-c2nc3ccc(C)cc3[nH]2)cc(OC)c1OC (centres undefined),1000 µg/mL
4,Cc1ccc2nc(-c3ccccc3N3C(=O)CSC3c3ccccc3[N+](=O)[O-])[nH]c2c1 (centres undefined),1000 µg/mL
5,Cc1ccc2nc(-c3ccccc3N3C(=O)CSC3c3ccc([N+](=O)[O-])cc3[N+](=O)[O-])[nH]c2c1 (centres undefined),1000 µg/mL

# From ChEMBL document CHEMBL3046893, “Antimicrobial screening of novel synthesized benzimidazole nucleus containing 4-oxo-thiazolidine derivatives” (2012)
